According to ChEMBL document CHEMBL3217617 (Medchemcomm, 2012):

Columns and labels:
[1] = Cytotoxicity against human SKBR3 cells by Alamar Blue assay; type: functional, cell-based; details: SK-BR-3
Histone deacetylase 3 [2] = biological target: T1, Histone deacetylase 3 (Homo sapiens, UniProt O15379); assay: Inhibition of human recombinant HDAC3 expressed in Sf21 insect cells using Ac-NH-GGK(Ac)-AMC as substrate after 180 mins by fluorescence assay
Histone deacetylase [3] = assay: Inhibition of HDAC in human HeLa cells using Boc-K(Ac)-AMC as substrate preincubated for 4 hrs before substrate addition measured after 3 hrs by fluorescence assay; type: cell-based
SK-OV-3 = assay: Cytotoxicity against human SKOV3 cells by Alamar Blue assay; type: functional, cell-based
A549 = assay: Cytotoxicity against human A549 cells by Alamar Blue assay; type: functional, cell-based
Histone deacetylase [4] = assay: Inhibition of HDAC in human HeLa cell nuclear extracts using Ac-NH-GGK(Ac)-AMC as substrate after 180 mins by fluorescence assay; type: protein assay
[5] = biological target: T2, Protein deacetylase HDAC6 (Homo sapiens, UniProt Q9UBN7); assay: Inhibition of human recombinant HDAC6 expressed in human HEK293 cells using Ac-NH-GGK(Ac)-AMC as substrate after 180 mins by fluorescence assay
T2 sequence (Q9UBN7 whole entry): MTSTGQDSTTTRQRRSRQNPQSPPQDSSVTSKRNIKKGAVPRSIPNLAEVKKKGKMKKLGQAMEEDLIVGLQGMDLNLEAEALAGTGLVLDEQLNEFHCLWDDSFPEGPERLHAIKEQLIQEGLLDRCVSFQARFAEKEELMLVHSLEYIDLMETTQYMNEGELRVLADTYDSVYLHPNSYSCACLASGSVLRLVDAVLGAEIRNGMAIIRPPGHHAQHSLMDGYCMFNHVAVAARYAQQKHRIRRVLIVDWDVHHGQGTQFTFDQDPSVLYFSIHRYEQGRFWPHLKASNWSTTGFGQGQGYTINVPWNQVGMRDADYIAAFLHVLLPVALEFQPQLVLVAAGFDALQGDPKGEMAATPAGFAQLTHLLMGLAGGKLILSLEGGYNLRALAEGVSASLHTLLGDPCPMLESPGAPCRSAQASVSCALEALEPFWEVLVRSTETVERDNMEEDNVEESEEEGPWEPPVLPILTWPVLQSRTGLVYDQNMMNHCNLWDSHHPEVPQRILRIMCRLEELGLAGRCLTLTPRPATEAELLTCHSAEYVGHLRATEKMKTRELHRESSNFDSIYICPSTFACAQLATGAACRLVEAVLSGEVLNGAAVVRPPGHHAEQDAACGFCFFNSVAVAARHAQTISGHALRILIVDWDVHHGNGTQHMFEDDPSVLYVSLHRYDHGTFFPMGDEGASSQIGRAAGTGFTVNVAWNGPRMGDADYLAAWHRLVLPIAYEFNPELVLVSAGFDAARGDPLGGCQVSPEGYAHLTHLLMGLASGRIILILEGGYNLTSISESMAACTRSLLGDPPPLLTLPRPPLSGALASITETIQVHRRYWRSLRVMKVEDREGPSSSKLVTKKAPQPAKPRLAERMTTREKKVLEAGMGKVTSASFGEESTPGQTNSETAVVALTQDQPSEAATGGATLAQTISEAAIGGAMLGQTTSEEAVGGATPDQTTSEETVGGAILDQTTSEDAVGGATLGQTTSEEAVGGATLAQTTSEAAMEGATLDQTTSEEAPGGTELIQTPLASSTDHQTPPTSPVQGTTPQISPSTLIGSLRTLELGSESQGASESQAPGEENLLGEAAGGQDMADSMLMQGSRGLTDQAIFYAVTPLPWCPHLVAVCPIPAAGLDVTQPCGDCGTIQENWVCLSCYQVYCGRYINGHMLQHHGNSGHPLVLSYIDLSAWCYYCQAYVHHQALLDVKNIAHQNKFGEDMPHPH

Histone deacetylase 1 [6] = biological target: T3, Histone deacetylase 1 (Homo sapiens, UniProt Q13547); assay: Inhibition of human recombinant HDAC1 expressed in human HEK293 cells using Ac-NH-GGK(Ac)-AMC as substrate after 180 mins by fluorescence assay
T3 sequence (Q13547 whole entry): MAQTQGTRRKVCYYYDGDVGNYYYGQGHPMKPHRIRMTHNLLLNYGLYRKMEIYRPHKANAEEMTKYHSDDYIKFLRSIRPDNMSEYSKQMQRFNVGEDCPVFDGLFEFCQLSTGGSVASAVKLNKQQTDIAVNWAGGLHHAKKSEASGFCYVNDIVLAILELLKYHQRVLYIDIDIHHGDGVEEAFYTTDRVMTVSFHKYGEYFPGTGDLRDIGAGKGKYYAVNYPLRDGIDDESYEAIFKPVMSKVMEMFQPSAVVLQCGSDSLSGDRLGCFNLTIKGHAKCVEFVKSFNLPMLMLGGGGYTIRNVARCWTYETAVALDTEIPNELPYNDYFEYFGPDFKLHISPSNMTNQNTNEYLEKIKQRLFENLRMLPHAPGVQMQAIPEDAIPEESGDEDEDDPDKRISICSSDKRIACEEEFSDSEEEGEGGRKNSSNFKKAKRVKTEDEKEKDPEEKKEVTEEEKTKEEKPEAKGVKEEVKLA

HeLa = assay: Cytotoxicity against human HeLa cells by Alamar Blue assay; type: functional, cell-based
Histone deacetylase 8 = biological target: T4, Histone deacetylase 8 (Homo sapiens, UniProt Q9BY41); assay: Inhibition of human recombinant HDAC8 expressed in Sf21 insect cells using Ac-NH-GGK(Ac)-AMC as substrate after 180 mins by fluorescence assay
T4 sequence (Q9BY41 whole entry): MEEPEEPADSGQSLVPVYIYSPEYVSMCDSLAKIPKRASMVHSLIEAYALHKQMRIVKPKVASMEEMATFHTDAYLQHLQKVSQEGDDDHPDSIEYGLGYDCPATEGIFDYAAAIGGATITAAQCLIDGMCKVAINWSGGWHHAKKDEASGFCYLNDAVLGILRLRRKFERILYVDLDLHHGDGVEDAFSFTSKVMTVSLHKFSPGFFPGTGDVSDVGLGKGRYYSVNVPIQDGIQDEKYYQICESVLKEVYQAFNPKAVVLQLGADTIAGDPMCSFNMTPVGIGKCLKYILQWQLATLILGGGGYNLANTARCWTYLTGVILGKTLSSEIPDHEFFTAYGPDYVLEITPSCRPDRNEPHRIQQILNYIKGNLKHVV

A-431 = assay: Cytotoxicity against human A431 cells by Alamar Blue assay; type: functional, cell-based
[7] = Cytotoxicity against human CAL27 cells by Alamar Blue assay; type: functional, cell-based; details: CAL-27
[8] = biological target: Cyclin-dependent kinase 2 (Homo sapiens, UniProt P24941); assay: Inhibition of recombinant CDK2 (unknown origin) using poly-Glu-Tyr peptide as substrate
[9] = biological target: Serine/threonine-protein kinase PLK1 (Homo sapiens, UniProt P53350); assay: Inhibition of recombinant Plk1 (unknown origin) using poly-Glu-Tyr peptide as substrate
Serine/threonine-protein kinase PLK1, sequence (P53350 whole entry): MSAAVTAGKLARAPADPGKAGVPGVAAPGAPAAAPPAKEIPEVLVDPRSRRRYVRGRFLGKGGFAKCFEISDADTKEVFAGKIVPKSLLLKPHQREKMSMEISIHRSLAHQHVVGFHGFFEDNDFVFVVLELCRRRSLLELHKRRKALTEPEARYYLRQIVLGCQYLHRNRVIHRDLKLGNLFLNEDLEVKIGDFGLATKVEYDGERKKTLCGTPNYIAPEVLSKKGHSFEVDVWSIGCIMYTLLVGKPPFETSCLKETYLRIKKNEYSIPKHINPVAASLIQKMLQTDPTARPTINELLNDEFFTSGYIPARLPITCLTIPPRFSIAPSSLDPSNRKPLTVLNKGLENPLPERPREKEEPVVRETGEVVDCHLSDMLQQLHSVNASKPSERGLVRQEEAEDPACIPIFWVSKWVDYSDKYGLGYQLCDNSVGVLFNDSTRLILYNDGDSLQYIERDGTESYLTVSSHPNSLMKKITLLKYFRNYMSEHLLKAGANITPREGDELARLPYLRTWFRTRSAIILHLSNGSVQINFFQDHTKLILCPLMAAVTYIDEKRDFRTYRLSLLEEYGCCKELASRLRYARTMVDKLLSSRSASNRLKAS

Histone deacetylase 3 [10] = biological target: T1, Histone deacetylase 3; assay: Inhibition of human recombinant HDAC3 expressed in Sf21 insect cells using Ac-NH-GGK(Ac)-AMC as substrate after 180 mins by fluorescence assay relative to control
[11] = Inhibition of recombinant PKA (unknown origin) using poly-Glu-Tyr peptide as substrate; parameters: species or system Homo sapiens
[12] = biological target: Receptor tyrosine-protein kinase erbB-2 (Homo sapiens, UniProt P04626); assay: Inhibition of recombinant HER2 (unknown origin) using poly-Glu-Tyr peptide as substrate
Receptor tyrosine-protein kinase erbB-2, sequence (P04626 whole entry): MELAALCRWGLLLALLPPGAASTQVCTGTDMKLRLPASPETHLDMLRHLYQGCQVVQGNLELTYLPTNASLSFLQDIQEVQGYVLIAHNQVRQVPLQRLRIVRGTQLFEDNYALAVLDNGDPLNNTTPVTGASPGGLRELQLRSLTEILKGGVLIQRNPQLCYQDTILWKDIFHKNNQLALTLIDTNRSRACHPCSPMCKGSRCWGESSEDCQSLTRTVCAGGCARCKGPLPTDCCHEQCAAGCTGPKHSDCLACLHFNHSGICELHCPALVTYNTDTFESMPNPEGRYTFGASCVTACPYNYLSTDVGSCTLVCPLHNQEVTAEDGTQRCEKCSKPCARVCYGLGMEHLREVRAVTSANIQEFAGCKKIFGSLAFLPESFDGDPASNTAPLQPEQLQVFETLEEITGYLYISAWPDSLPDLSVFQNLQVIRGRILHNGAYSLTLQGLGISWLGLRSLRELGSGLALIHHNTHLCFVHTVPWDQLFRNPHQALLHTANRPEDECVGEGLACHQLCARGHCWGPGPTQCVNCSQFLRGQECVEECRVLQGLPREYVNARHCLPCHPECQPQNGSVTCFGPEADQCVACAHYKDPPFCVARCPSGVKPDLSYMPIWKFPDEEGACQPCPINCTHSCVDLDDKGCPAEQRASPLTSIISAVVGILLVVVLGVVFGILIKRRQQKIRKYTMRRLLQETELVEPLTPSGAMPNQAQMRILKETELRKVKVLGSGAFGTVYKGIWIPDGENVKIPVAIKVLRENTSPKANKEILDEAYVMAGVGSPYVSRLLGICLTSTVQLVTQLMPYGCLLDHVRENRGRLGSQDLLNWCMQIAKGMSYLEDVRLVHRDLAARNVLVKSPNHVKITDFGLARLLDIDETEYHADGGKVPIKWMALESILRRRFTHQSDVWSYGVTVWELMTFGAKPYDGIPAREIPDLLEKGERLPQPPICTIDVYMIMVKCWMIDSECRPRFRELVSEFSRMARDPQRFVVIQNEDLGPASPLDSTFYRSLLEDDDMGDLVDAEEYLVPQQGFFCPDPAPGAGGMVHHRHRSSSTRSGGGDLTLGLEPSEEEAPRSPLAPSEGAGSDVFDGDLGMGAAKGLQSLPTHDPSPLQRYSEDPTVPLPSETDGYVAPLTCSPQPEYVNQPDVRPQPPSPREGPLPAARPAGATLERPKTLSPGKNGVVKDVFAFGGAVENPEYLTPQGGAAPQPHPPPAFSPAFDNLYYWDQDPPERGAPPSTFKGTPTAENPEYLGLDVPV

[13] = biological target: Epidermal growth factor receptor (Homo sapiens, UniProt P00533); assay: Inhibition of recombinant EGFR (unknown origin) using poly-Glu-Tyr peptide as substrate
Insulin receptor = Insulin receptor (Homo sapiens, UniProt P06213); assay: Inhibition of recombinant InsR (unknown origin) using poly-Glu-Tyr peptide as substrate
Insulin receptor, sequence (P06213 28-758 limits assumed): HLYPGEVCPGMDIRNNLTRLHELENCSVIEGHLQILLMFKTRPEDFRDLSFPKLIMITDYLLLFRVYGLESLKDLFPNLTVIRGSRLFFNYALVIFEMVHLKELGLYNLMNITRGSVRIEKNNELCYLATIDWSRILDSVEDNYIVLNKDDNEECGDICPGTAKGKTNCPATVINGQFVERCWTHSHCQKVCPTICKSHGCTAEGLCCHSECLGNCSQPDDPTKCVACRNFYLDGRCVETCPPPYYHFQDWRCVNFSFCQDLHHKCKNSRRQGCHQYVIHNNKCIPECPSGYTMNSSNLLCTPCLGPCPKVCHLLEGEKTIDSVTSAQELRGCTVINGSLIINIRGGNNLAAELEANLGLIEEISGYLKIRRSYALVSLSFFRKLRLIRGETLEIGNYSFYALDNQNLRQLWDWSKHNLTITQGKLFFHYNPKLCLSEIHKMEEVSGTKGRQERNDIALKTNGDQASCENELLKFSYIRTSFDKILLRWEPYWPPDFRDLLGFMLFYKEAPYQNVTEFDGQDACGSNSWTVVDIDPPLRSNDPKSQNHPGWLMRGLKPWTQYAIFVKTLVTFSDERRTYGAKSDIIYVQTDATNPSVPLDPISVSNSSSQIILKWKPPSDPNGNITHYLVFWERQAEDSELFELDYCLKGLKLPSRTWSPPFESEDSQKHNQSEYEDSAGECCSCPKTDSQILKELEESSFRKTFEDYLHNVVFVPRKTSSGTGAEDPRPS
Insulin receptor, sequence (P06213 763-1382 limits assumed): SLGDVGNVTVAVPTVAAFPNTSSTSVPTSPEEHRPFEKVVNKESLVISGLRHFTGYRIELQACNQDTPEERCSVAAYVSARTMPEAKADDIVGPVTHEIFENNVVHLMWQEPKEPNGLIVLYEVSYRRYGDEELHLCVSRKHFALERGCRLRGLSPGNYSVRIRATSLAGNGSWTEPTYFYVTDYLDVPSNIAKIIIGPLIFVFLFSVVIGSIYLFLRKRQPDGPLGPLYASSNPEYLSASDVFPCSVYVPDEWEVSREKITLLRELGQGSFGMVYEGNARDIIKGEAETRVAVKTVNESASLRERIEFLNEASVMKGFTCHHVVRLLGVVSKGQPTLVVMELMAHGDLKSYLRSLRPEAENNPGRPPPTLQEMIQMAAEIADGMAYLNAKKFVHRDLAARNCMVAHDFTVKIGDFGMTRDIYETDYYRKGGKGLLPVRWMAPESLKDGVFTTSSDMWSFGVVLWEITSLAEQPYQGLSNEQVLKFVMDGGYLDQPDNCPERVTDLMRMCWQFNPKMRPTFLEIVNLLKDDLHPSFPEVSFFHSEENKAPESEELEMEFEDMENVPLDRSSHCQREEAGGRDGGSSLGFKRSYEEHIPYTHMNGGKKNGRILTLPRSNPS

[14] = biological target: Platelet-derived growth factor receptor beta (Homo sapiens, UniProt P09619); assay: Inhibition of recombinant PDGFRbeta (unknown origin) using poly-Glu-Tyr peptide as substrate
[15] = biological target: Tyrosine-protein kinase ABL1 (Homo sapiens, UniProt P00519); assay: Inhibition of recombinant Abl1 (unknown origin) using poly-Glu-Tyr peptide as substrate
Tyrosine-protein kinase ABL1, sequence (P00519 whole entry): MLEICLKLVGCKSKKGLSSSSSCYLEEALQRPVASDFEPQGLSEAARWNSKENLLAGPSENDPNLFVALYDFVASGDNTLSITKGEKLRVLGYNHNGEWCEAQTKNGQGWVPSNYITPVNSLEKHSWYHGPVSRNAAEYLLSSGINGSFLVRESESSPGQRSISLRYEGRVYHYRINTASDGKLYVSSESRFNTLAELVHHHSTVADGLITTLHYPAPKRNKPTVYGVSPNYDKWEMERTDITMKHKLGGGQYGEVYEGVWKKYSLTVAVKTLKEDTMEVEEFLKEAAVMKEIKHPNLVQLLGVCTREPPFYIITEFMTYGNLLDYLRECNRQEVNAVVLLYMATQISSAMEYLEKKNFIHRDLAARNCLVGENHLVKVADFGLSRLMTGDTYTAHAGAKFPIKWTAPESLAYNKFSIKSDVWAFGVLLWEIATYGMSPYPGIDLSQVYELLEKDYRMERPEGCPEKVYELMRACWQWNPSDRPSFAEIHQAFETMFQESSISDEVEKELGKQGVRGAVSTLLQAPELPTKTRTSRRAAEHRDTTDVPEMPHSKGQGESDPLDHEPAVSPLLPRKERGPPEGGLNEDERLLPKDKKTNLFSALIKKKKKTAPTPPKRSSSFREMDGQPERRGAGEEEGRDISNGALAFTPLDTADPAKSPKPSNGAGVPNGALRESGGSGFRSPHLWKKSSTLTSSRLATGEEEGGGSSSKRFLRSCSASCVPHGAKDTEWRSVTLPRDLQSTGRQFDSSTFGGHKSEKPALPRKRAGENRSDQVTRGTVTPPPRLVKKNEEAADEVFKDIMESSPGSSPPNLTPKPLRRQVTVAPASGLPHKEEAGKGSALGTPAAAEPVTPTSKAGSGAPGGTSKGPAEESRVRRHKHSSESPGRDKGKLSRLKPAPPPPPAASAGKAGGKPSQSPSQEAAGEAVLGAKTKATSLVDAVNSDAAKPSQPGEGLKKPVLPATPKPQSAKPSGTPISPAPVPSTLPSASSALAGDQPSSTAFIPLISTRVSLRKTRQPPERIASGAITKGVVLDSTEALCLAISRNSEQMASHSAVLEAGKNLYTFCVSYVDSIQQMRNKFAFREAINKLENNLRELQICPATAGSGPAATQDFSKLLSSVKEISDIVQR

[16] = biological target: T5, Histone deacetylase (Homo sapiens) (UniProt Q13547+O15379+Q9UBN7+Q92769+Q9UQL6+Q8WUI4+Q9BY41+Q96DB2+P56524+Q9UKV0+Q969S8); assay: Inhibition of HDAC in human HeLa cells using Boc-K(Ac)-AMC as substrate preincubated for 4 hrs before substrate addition measured after 3 hrs by fluorescence assay relative to control; type: cell-based
[17] = biological target: T5, Histone deacetylase (Homo sapiens); assay: Inhibition of HDAC in human HeLa cell nuclear extracts using Ac-NH-GGK(Ac)-AMC as substrate after 180 mins by fluorescence assay relative to control; type: protein assay
Histone deacetylase 1 [18] = biological target: T3, Histone deacetylase 1; assay: Inhibition of human recombinant HDAC1 expressed in human HEK293 cells using Ac-NH-GGK(Ac)-AMC as substrate after 180 mins by fluorescence assay relative to control

IC50 (Histone deacetylase 3 [2]) [µM] | IC50 (Histone deacetylase [3]) [µM] | IC50 (Histone deacetylase [4]) [µM] | IC50 [5] [µM] | IC50 (Histone deacetylase 1 [6]) [µM] | IC50 (Histone deacetylase 8) [µM] | IC50 [8] [µM] | IC50 [9] [µM] | IC50 [11] [µM] | IC50 [12] [µM] | IC50 [13] [µM] | IC50 (Insulin receptor) [µM] | IC50 [14] [µM] | Imax [17] [%] | Structure (SMILES) | IC50 [1] [µM] | IC50 (SK-OV-3) [µM] | IC50 (A549) [µM] | IC50 (HeLa) [µM] | IC50 (A-431) [µM] | IC50 [7] [µM] | further results
0.92 | > 15.8 | > 32 | > 32 | 8.6 | > 32 |  |  |  |  |  |  |  |  | C#Cc1cccc(Nc2ncnc3ccc(NC(=O)c4ccc(C(=O)Nc5ccccc5N)s4)cc23)c1 | > 50 | > 50 | > 50 | > 50 | > 16 | 0.41 | 
0.51 | 2.46 | 0.25 | > 32 | 0.074 | > 32 | 22 | > 100 | > 100 | 0.039 | 0.033 | 150 | 28 |  | Nc1ccccc1NC(=O)c1ccc(COc2ccc3ncnc(Nc4cccc(Br)c4)c3c2)cc1 | 5.1 | 6.3 | 1.3 | 1.45 | 1.7 | 0.62 | Imax (Histone deacetylase 3 [10]): 75%; IC50 [15]: 11 µM
> 32 | > 15.8 | > 32 | > 32 | > 32 | > 32 |  |  | > 100 |  |  |  |  |  | C#Cc1cccc(Nc2ncnc3cc(OCCOC)c(OCCOC)cc23)c1 [ERLOTINIB] | 15 | 31 | > 50 | 8.3 | 2.5 | 0.074 | 
0.5 | 0.78 | 0.2 | > 32 | 0.8 | > 32 |  |  |  |  |  |  |  | 30 | C#Cc1cccc(Nc2ncnc3cc(NC(=O)c4ccc(C(=O)Nc5ccccc5N)cc4)ccc23)c1 | 39 | > 50 | 1.4 | 1.7 | 1.6 | 0.46 | Imax [16]: 30%
0.84 | 4.24 | 7.2 | > 32 | 0.091 | > 32 | 17 | 27 | 24 | 2.9 | 1.3 | 41 | 16 | 50 | C#Cc1cccc(Nc2ncnc3ccc(S(=O)(=O)n4ccc(/C=C/C(=O)Nc5ccccc5N)c4)cc23)c1 | 27 | 5.7 | 3.7 | 3.45 | 3.7 | 2.5 | Imax (Histone deacetylase 3 [10]): 75%; IC50 [15]: 15 µM
0.77 | > 5.01 | 0.38 | > 32 | 2.2 | > 32 |  |  |  |  |  |  |  | 30 | C#Cc1cccc(Nc2ncnc3cc(NC(=O)c4ccc(C(=O)Nc5ccccc5N)s4)ccc23)c1 | 33 | 30 | 0.82 | 1.8 | 0.96 | 1.2 | Imax (Histone deacetylase 3 [10]): 70%; Imax (Histone deacetylase 1 [18]): 75%
0.32 | > 5.01 | 0.51 | > 32 | 5.6 | > 32 |  |  |  |  |  |  |  | 30 | C#Cc1cccc(Nc2ncnc3cc(NC(=O)c4ccc(C(=O)Nc5ccccc5N)nc4)ccc23)c1 | > 50 | > 50 | 2.1 | 1.5 | 0.79 | 0.45 | 
0.61 | > 15.8 | > 32 | > 32 | 10.5 | > 32 |  |  |  |  |  |  |  |  | C#Cc1cccc(Nc2ncnc3ccc(NC(=O)c4ccc(C(=O)Nc5ccccc5N)cc4)cc23)c1 | > 50 | > 50 | > 50 | > 50 | > 16 | 0.33 | 
0.015 | 0.034 | 0.0064 | 0.0073 | 0.0065 | 0.59 | > 100 | > 100 | > 100 | 3.4 | 1.2 | 65 | 70 |  | C#Cc1cccc(Nc2ncnc3ccc(S(=O)(=O)n4ccc(/C=C/C(=O)NO)c4)cc23)c1 | 0.19 | 0.56 | 0.24 | 0.5 | 0.26 | 0.16 | IC50 [15]: 27 µM
0.55 | 1.85 | 0.2 | > 32 | 0.041 | > 32 | 13 | > 100 | > 100 | 0.066 | 0.078 | 36 | 7.2 | 50 | C#Cc1cccc(Nc2ncnc3ccc(OCc4ccc(C(=O)Nc5ccccc5N)cc4)cc23)c1 | 3.4 | 5.1 | 0.9 | 1.35 | 1.6 | 0.61 | IC50 [15]: 7 µM
0.44 | > 15.8 | > 32 | > 32 | 0.31 | > 32 |  |  |  |  |  |  |  |  | C#Cc1cccc(Nc2ncnc3ccc(NC(=O)c4ccc(C(=O)Nc5ccccc5N)nc4)cc23)c1 | 11 | 7.7 | 39 | 21.5 | > 16 | 8 | Imax (Histone deacetylase 1 [18]): 70%
